Literature values, collected in US11426350B1, “Reducing the environmental impact of farming using biochar” (Carbon Technology Holdings, LLC, priority 2014, dated 2022).

Test system: E. coli O157:H7

Lactobacillus rhamnosus GG
E. coli O157:H7-induced lesions in Caco-2 cells: prevent
